Results: PMC11530593, “Structural mechanism of human HCN1 hyperpolarization-activated channel inhibition by ivabradine” (The Journal of Biological Chemistry, 2024)
Substitutions are numbered along the chain they refer to.

Legend:
[1] = design: method as in PMID 16936474; details: cited from earlier work
absence seizures = system: absence seizures; design: method as in PMID 34018186; details: coadministration with P-glycoprotein inhibitor elacridar; cited from earlier work
HCN1 mutant Y289A = molecular target: T1, HCN1 mutant Y289A (Homo sapiens, UniProt O60741, Y289A); test: Whole-cell patch-clamp, Ih inhibition, HCN1 mutant; type: cell-based; details: electrophysiological recordings, read-out: IC50 (Fig. 2F)
T1 construct: Full-length WT or mutant human HCN1 were cloned into the pcDNA3.1 vector; expressed in transfected cells; host or cells: HeLa cells, pcDNA3.1 vector, transient lipofection
T1 sequence (O60741 1-890 Y289A): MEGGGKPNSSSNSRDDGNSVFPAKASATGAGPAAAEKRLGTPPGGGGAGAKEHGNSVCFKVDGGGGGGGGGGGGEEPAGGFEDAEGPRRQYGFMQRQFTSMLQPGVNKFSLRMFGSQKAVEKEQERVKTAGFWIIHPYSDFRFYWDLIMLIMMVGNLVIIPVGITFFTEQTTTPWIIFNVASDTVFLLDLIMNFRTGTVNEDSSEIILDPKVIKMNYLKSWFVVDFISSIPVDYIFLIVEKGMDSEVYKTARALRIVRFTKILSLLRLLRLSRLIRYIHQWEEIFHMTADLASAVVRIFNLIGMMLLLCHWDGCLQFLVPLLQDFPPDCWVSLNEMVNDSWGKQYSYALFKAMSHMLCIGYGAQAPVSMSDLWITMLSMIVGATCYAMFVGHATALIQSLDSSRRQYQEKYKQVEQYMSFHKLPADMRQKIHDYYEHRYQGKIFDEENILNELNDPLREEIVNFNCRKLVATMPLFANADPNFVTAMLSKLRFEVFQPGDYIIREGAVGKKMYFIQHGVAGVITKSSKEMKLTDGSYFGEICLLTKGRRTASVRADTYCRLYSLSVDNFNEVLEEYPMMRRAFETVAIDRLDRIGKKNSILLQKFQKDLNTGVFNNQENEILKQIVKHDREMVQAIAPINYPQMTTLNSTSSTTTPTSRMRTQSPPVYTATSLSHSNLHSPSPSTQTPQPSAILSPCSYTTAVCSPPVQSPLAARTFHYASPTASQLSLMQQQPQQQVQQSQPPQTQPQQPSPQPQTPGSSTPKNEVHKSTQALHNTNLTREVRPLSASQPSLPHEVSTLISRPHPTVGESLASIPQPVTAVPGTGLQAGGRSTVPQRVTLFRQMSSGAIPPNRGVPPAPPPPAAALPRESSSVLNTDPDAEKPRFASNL
Procedure: (§1) To elucidate the contribution of these residues to the inhibitory effect of ivabradine, we introduced mutations in ivabradine-interacting residues, converting them into alanines (Fig. 2F).
(§2) Full-length WT or mutant human HCN1 were cloned into the pcDNA3.1 vector for electrophysiological experiments. HeLa cells (from Thermo Fisher Scientific) cultured in Dulbecco's modified Eagle's medium (from Solarbio Life Science) + 10% fetal bovine serum (from ExCell Bio) at 37 °C were transiently transfected using lipofection, and whole-cell patch-clamp recordings were obtained using the Axon 200B amplifier (Molecular Devices) and clampex software (https://www.moleculardevices.com/products/axon-patch-clamp-system/acquisition-and-analysis-software/pclamp-software-suite), 36 to 48 h posttransfection. The extracellular solution contained 110 mM NaCl, 0.5 mM MgCl2, 1.8 mM CaCl2, 5 mM Hepes, 30 mM KCl, and pH was adjusted to 7.4 with NaOH, while the pipette solution contained 130 mM KCl, 10 mM NaCl, 0.5 mM MgCl2, 1 mM EGTA, 5 mM Hepes, and pH was adjusted to 7.4 with KOH. The recordings were performed at room temperature, voltage-clamp mode, and filtered at 1 kHz. The sampling frequency was 10 kHz, and the series resistance was limited to 5 MΩ. To elicit channel currents, step pulses of 3 s duration ranging from −180 mV to −30 mV were applied, followed by a step to −180 mV lasting 1.25 s. The tail currents evoked by the second step were used to determine the voltage-dependent activation curves and calculate the midpoint of activation potential (V1/2). The half maximal inhibitory concentration (IC50) of drugs was determined by recording currents at a pulse of −140 mV and analyzing current amplitudes at varying drug concentrations. The IC50 value was calculated using the Hill equation.

HCN1 mutant D140A = molecular target: T2, HCN1 mutant D140A (Homo sapiens, UniProt O60741, D140A); test: Whole-cell patch-clamp, Ih inhibition, HCN1 mutant; type: cell-based
T2 construct: Full-length WT or mutant human HCN1 were cloned into the pcDNA3.1 vector; expressed in transfected cells; host or cells: HeLa cells, pcDNA3.1 vector, transient lipofection
T2 sequence (O60741 1-890 D140A): T1 sequence (O60741 1-890 Y289A) with D140A, A289Y
Procedure: as §1, §2

COc1cc2c(cc1OC)CC(=O)N(CCCN(C)C[C@H]1Cc3cc(OC)c(OC)cc31)CC2 [ivabradine]
ability to penetrate the blood-brain barrier [1]: poor
effect on absence seizures (absence seizures): significantly and persistently reducing absence seizures
IC50 (HCN1 mutant Y289A): 11.8 µM
IC50 (HCN1 mutant D140A; D140A mutant, electrophysiological recordings, read-out: IC50 (Fig. 2F)): 27.6 µM
change in potency by mutation (HCN1 mutant D140A; D140A versus WT): dramatic decrease
